15 compounds from patent publication US9611262B2, “Substituted 2-azabicycles and their use as orexin receptor modulators” (JANSSEN PHARMACEUTICA NV, priority 2014, dated 2017) can be followed below.

One assay addresses rat orexin 1 receptor (Rattus norvegicus, UniProt P56718). Briefly: Rat orexin 1 receptor radioligand binding (competitive). Conditions: HEK293 cells stably expressing rat orexin 1 receptor; 4 nM radioligand; averages of 2-20 runs; read-out: rOX1 Ki. On the procedure: (§1) The in vitro affinity of the compounds of the invention for the rat/human orexin 1 and human orexin 2 receptors was determined by competitive radioligand binding using [^3H](1-(5-(2-fluoro-phenyl)-2-methyl-thiazol-4-yl)-1-((S)-2-(5-phenyl-(1,3,4)oxadiazol-2-ylmethyl)-pyrrolidin-1-yl)-methanone) (Langmead et al., 2004) and [^3H]EMPA (n-ethyl-2[96-methoxy-pyridin-3-yl)-(toluene-2-sulfonyl)-amino]-N-pyridin-3-ylmethyl acetamide), respectively (Langmead et al., 2004, British Journal of Pharmacology 141:340-346; Malherbe et al., 2004, British Journal of Pharmacology 156:1326-41).
(§2) Data are analyzed using pc-Sandy macro and graphed on Graphpad Prism 5. For analysis, each concentration point is averaged from triplicate values and the averaged values are plotted on Graphpad Prism. The IC50 was determined by applying the following equation (GraphPad Prism 5.0, San Diego) for one site competition where X=log (concentration) and Y=specific binding. Top denotes the total [^3H]— (1-(5-(2-fluoro-phenyl)-2-methyl-thiazol-4-yl)-1-((S)-2-(5-phenyl-(1,3,4)oxadiazol-2-ylmethyl)-pyrrolidin-1-yl)-methanone) binding, bottom denotes the nonspecific [^3H]— (1-(5-(2-fluoro-phenyl)-2-methyl-thiazol-4-yl)-1-((S)-2-(5-phenyl-(1,3,4)oxadiazol-2-ylmethyl)-pyrrolidin-1-yl)-methanone) binding. Graphpad Prism calculates Ki value from IC50 and the pre-determined Kd values for [^3H]— (1-(5-(2-fluoro-phenyl)-2-methyl-thiazol-4-yl)-1-((S)-2-(5-phenyl-(1,3,4)oxadiazol-2-ylmethyl)-pyrrolidin-1-yl)-methanone) and [^3H]-EMPA. The Ki for each compound is then uploaded into 3DX. Each run comprises individual compounds in triplicate. The data in Table 1 and Table 2 represent averages from between 2-20 runs
(§3) Rat and Human Orexin 1 Receptor Radioligand Binding Studies
(§4) Human Embryonic Kidney 293 cells (HEK293) stably expressing rat orexin 1 receptor (Genebank accession number NM_001525) or Chinese ovary cells (CHO) stably expressing human orexin 1 receptor (Genebank accession number […]) were grown to confluency in DMEM (Hyclone, cat # SH30022), 10% FBS, 1× Pen/Strep, 1× sodium pyruvate, 10 mM HEPES, 600 μg/mL G418 and DMEM/F12 (Gibco, Cat #11039), 10% FBS, 1× Pen/Strep, 600 μg/mL G418 media, respectively on 150 cm^2 tissue culture plates, washed with 5 mM EDTA in PBS (HyClone Dulbecco's Phosphate Buffered Saline 1× with Calcium and Magnesium, Cat # SH30264.01, hereafter referred to simply as PBS) and scraped into 50 ml tubes. After centrifugation (2K×G, 5 min at 4° C.), the supernatant was aspirated and the pellets frozen and stored at −80° C. Cells were resuspended in PBS in the presence of 1 tablet of protease inhibitor cocktail (Roche, Cat. #11836145001) per 50 mL. […] Competition binding experiments in 96 well polypropylene plates were performed using [^3H]— (1-(5-(2-fluoro-phenyl)-2-methyl-thiazol-4-yl)-1-((S)-2-(5-phenyl-(1,3,4)oxadiazol-2-ylmethyl)-pyrrolidin-1-yl)-methanone) (Moraveck Corporation, specific activity=35.3 Ci/mmol), diluted to a 10 nM concentration in PBS (4 nM final). Compounds were solubilized in 100% DMSO (Acros Organics, Cat. #61042-1000) and tested over a range of 7 concentrations (from 0.1 nM to 10 μM). The final concentration of DMSO in the reactions is equal to or less than 0.1%. Total and nonspecific binding was determined in the absence and presence of 10 μM almorexant. The total volume of each reaction is 200 μL (20 μL of diluted compounds, 80 μL of [^3H]— (1-(5-(2-fluoro-phenyl)-2-methyl-thiazol-4-yl)-1-((S)-2-(5-phenyl-(1,3,4)oxadiazol-2-ylmethyl)-pyrrolidin-1-yl)-methanone) diluted in PBS and 100 μL of the cell suspension). Reactions were run for 60 min at room temperature and terminated by filtration through GF/C filter plates (PerkinElmer, Cat. #6005174) presoaked in 0.3% polyethylenimine using the cell harvester (PerkinElmer Filtermate). The plates were washed 3 times by aspirating 30 ml PBS through the plates. Plates were dried in 55° C. oven for 60 min, scintillation fluid was added, and the radioactivity was counted on a Topcount (Packard). […]

The next assay addresses human orexin 1 receptor (Homo sapiens (Human), UniProt O43613). Briefly: Human orexin 1 receptor radioligand binding (competitive). The settings on record: CHO cells stably expressing human orexin 1 receptor; 4 nM radioligand; averages of 2-20 runs; read-out: hOX1 Ki. The protocol:
as §1, §2, §3, §4

In a further assay the target is human orexin 2 receptor (Homo sapiens (Human), UniProt O43614). Briefly: Human orexin 2 receptor radioligand binding ([3H]-EMPA competition). The settings on record: HEK293 stably expressing human orexin 2 receptor; 2 nM [3H]-EMPA; averages of 2-20 runs; read-out: hOX2 Ki. A digest of the protocol:
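Membranes-free whole HEK293 cells stably expressing human OX2 receptor incubated with [3H]-EMPA and compound (7 concentrations, 0.1 nM–10 μM, ≤0.1% DMSO) for 60 min at room temperature; nonspecific binding with 10 μM almorexant. Filtration and scintillation counting; one-site IC50 converted to Ki using predetermined Kd, triplicates averaged over 2-20 runs.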

Chain of human orexin 1 receptor (O43613 whole entry): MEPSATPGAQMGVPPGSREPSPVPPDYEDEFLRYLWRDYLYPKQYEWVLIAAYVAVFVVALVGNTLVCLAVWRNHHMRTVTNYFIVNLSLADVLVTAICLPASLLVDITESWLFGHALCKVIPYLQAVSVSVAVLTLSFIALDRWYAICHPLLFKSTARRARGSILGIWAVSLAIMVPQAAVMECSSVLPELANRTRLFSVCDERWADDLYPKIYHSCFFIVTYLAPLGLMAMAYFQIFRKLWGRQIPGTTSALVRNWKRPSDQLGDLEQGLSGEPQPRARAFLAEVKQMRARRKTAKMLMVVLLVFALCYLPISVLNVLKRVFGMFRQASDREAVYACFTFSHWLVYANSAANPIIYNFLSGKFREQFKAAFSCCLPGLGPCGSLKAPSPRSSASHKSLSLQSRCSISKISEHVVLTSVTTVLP
Chain of human orexin 2 receptor (O43614 whole entry): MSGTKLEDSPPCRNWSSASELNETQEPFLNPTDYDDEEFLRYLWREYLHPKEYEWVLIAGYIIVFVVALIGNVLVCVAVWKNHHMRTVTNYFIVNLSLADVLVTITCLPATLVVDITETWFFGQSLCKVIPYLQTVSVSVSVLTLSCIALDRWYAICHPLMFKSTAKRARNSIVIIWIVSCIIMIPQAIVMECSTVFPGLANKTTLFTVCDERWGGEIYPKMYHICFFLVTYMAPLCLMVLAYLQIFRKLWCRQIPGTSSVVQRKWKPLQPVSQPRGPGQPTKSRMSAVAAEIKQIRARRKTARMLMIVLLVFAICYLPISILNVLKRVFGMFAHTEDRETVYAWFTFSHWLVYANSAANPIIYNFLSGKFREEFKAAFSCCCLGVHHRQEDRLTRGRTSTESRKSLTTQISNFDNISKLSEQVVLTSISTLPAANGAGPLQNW

In the case of `CC1C2CC(Nc3cnc(C(F)(F)F)cn3)C(C2)N1C(=O)c1cccc(F)c1-c1ncccn1` (single isomer, unassigned) [Example 67, (R/S)-(3-fluoro-2-(pyrimidin-2-yl)phenyl)(3-methyl-6-((5-(trifluoromethyl)pyrazin-2-yl)amino)-2-azabicyclo[2.2.1]heptan-2-yl)methanone], the inhibitory constant (Ki) at rat orexin 1 receptor amounted to 16 nM; at human orexin 1 receptor it was 21 nM.
With `C[C@@H]1[C@H]2C[C@@H](Oc3ccc(Cl)cn3)[C@H](C2)N1C(=O)c1ccccc1-n1nccn1` [Example 121, [(1R,2R,4S,5R)-5-[(5-chloro-2-pyridyl)oxy]-2-methyl-3-azabicyclo[2.2.1]heptan-3-yl]-[2-(triazol-2-yl)phenyl]methanone], the Ki at rat orexin 1 receptor and at human orexin 1 receptor was 3 nM throughout.
Regarding `CC1C2CC(Oc3ccc(C(F)(F)F)cn3)C(C2)N1C(=O)c1ccccc1-c1ncc(F)cn1` (single isomer, unassigned) [Example 19B, (2-(5-fluoropyrimidin-2-yl)phenyl)((1S*,3R*,4R*,6R*)-3-methyl-6-((5-(trifluoromethyl)pyridin-2-yl)oxy)-2-azabicyclo[2.2.1]heptan-2-yl)methanone], the Ki at rat orexin 1 receptor is 5 nM; at human orexin 1 receptor, 6 nM.
`C[C@@H]1[C@H]2C[C@@H](Oc3ccc(C(F)(F)F)cn3)[C@H](C2)N1C(=O)c1ccccc1-c1cccc(F)n1` [Example 173, [2-(6-fluoro-2-pyridyl)phenyl]-[(1R,2R,4S,5R)-2-methyl-5-[[5-(trifluoromethyl)-2-pyridyl]oxy]-3-azabicyclo[2.2.1]heptan-3-yl]methanone]: the Ki on human orexin 2 receptor turned out to be 343 nM; at human orexin 1 receptor, 5 nM.
As to `CCC1C2CC(Oc3ccc(C(F)(F)F)cn3)C(C2)N1C(=O)c1ccccc1-n1nccn1` (racemic) [Example 213, (R/S)-[2-ethyl-5-[[5-(trifluoromethyl)-2-pyridyl]oxy]-3-azabicyclo[2.2.1]heptan-3-yl]-[2-(triazol-2-yl)phenyl]methanone], the Ki on rat orexin 1 receptor is 4 nM; on human orexin 1 receptor, 2 nM.
In the same order, the values of `CC(C)CC1C2CC(Oc3ccc(C(F)(F)F)cn3)C(C2)N1C(=O)c1ccccc1-n1nccn1` (racemic) [Example 207, (R/S)-[2-isobutyl-5-[[5-(trifluoromethyl)-2-pyridyl]oxy]-3-azabicyclo[2.2.1]heptan-3-yl]-[2-(triazol-2-yl)phenyl]methanone] are 51 nM and 45 nM.
For `CC1C2CC(Oc3ccc(C(F)(F)F)cn3)C(C2)N1C(=O)c1cccc(F)c1-c1ncco1` (racemic) [Example 12, (R/S)-(3-fluoro-2-(oxazol-2-yl)phenyl)(3-methyl-6-((5-(trifluoromethyl)pyridin-2-yl)oxy)-2-azabicyclo[2.2.1]heptan-2-yl)methanone], the inhibitory constant (Ki) at rat orexin 1 receptor and on human orexin 1 receptor was 8 nM each time.
Take `C[C@@H]1[C@H]2C[C@@H](Oc3ccc(C(F)(F)F)cn3)[C@H](C2)N1C(=O)c1ccc(F)cc1-n1nccn1` (relative stereo) [Example 28, (4-fluoro-2-(2H-1,2,3-triazol-2-yl)phenyl)((1S*,3R*,4R*,6R*)-3-methyl-6-((5-(trifluoromethyl)pyridin-2-yl)oxy)-2-azabicyclo[2.2.1]heptan-2-yl)methanone]: the Ki on rat orexin 1 receptor came to 6 nM; at human orexin 1 receptor, 5 nM.
For the compound `[2H]C1([2H])[C@H]2C[C@@H]([C@@H]1Oc1ccc(Cl)cn1)N(C(=O)c1ccccc1-n1nccn1)[C@@H]2C` [Example 195, [(1R,3R,4S,6R)-3-[(5-chloro-2-pyridyl)oxy]-2,2-dideuterio-6-methyl-5-azabicyclo[2.2.1]heptan-5-yl]-[2-(triazol-2-yl)phenyl]methanone], the results for the Ki on rat orexin 1 receptor and on human orexin 1 receptor were 8 nM and 4 nM, respectively.
Regarding `COC[C@@H]1[C@@H]2CC[C@@H]([C@H](Oc3ccc(C(F)(F)F)cn3)C2)N1C(=O)c1nc(C)ccc1-n1nccn1` [Example 179, [(1R,2S,4S,5R)-2-(methoxymethyl)-5-[[5-(trifluoromethyl)-2-pyridyl]oxy]-3-azabicyclo[2.2.2]octan-3-yl]-[6-methyl-3-(triazol-2-yl)-2-pyridyl]methanone], the Ki was found to be 2100 nM on human orexin 2 receptor and 15 nM on rat orexin 1 receptor.
Consider `C[C@@H]1[C@H]2C[C@@H](Oc3ccc(C(F)(F)F)cn3)[C@H](C2)N1C(=O)c1cc(OCCBr)ccc1-n1nccn1` [Example 204, [5-(2-bromoethoxy)-2-(triazol-2-yl)phenyl]-[(1R,2R,4S,5R)-2-methyl-5-[[5-(trifluoromethyl)-2-pyridyl]oxy]-3-azabicyclo[2.2.1]heptan-3-yl]methanone], for which the Ki at human orexin 2 receptor was determined as 236 nM; at rat orexin 1 receptor it was 71 nM.
Consider `O=C(c1c(F)cccc1-n1nccn1)N1[C@H](CO)[C@@H]2CC[C@H]1[C@H](Oc1ccc(C(F)(F)F)cn1)C2` [Example 177, [2-fluoro-6-(triazol-2-yl)phenyl]-[(1R,2S,4S,5R)-2-(hydroxymethyl)-5-[[5-(trifluoromethyl)-2-pyridyl]oxy]-3-azabicyclo[2.2.2]octan-3-yl]methanone], for which the Ki was more than 10000 nM at human orexin 2 receptor and 1150 nM at rat orexin 1 receptor.
Turning to `C[C@@H]1[C@H]2C[C@@H](Oc3ccc(C(F)(F)F)cn3)[C@H](C2)N1C(=O)c1cc2ccccc2nc1OCCO` [Example 203, [2-(2-hydroxyethoxy)-3-quinolyl]-[(1R,2R,4S,5R)-2-methyl-5-[[5-(trifluoromethyl)-2-pyridyl]oxy]-3-azabicyclo[2.2.1]heptan-3-yl]methanone], the Ki on human orexin 2 receptor is more than 10000 nM; at rat orexin 1 receptor, 60 nM.
In the same order, the values of `C[C@@H]1[C@H]2C[C@@H](Oc3ccc(C(F)(F)F)nc3)[C@H](C2)N1C(=O)c1ccccc1-n1nccn1` (relative stereo) [Example 41, (2-(2H-1,2,3-triazol-2-yl)phenyl)((1S*,3R*,4R*,6R*)-3-methyl-6-((6-(trifluoromethyl)pyridin-3-yl)oxy)-2-azabicyclo[2.2.1]heptan-2-yl)methanone] are more than 10000 nM and 300 nM.
For the compound `COC[C@@H]1[C@@H]2CC[C@@H]([C@H](Oc3ccc(C(F)(F)F)cn3)C2)N1C(=O)c1nc(C)ccc1-c1ncccn1` [Example 180, [(1R,2S,4S,5R)-2-(methoxymethyl)-5-[[5-(trifluoromethyl)-2-pyridyl]oxy]-3-azabicyclo[2.2.2]octan-3-yl]-(6-methyl-3-pyrimidin-2-yl-2-pyridyl)methanone], the Ki is 1700 nM at human orexin 2 receptor and 32 nM at rat orexin 1 receptor.
